≈ marks a conversion by molar mass, not a printed value. Where two headings read alike, the source gives them in different places.

The term MIC denotes the least concentration at which growth counts as inhibited.

Common to all, as to assay type: cell-based
Assay [1] relates to U138-MG (Glioblastoma). In words: In vitro cytotoxicity, MTT assay, U138-MG. Conditions: Homo sapiens, read-out: Cytotoxicity. How it is done:
(§1) The in vitro cytotoxicity of a selection of compounds were evaluated in a panel of cell lines using the standard MTT assay for a 72 hour incubation period (Table 2). Free payloads produced cytotoxicities in the nanomolar range.
(§2) Tumor cell lines were maintained in RPMI1640 medium supplemented with 10% heat-inactivated fetal bovine serum, 2 mM L-glutamine and 1 mM sodium pyruvate. 1800 cells per well were seeded in a volume of 180 μl in a 96-well flat bottom polystyrene plate. The cells were allowed to adhere overnight at 37° C. in a CO2 incubator. Ligands were initially formulated in DMSO, and stocks stored at −80° C. They were then further formulated at lox concentration in RPMI1640 medium. 20 ul of diluted samples were added into each treatment well. On each plate, blank wells with no cells, and untreated wells containing cells, were included. Plates were then cultured at 37° C. in a CO2 incubator for 72 hrs. Cytotoxicity was evaluated using a tetrazolium salt-based assay, the MTT assay. After 72 hours, the supernatant was removed from each well and 200 μl of a sterile filtered 500 μg/ml MTT solution in water added to each well. The plates were then incubated at 37° C. in a CO2 incubator for 4 hrs. The supernatant was then removed and the formazan crystals formed solubilized by adding 150 μl of DMSO to each well. The plate was then read on a plate reader at 540 nm, and percentage cell survival calculated as follows: ((mean absorbance treated wells at concentration x−mean absorbance blank wells)+(mean absorbance untreated wells at concentration x−mean absorbance blank wells))×100. Data were plotted as concentration in nM vs. % cell survival in Microsoft Excel, and IC50 values (concentration where cell survival is reduced by a half) were determined from the graph.

The test system of assay [2] is A431 (Skin). In words: In vitro cytotoxicity, MTT assay, A431. The settings on record: Homo sapiens, read-out: Cytotoxicity. As to the method:
as §1, §2
For orientation: Tetrazolium dyes change colour on reduction, which living cells bring about.

The test system of assay [3] is REH (ALL). In words: In vitro cytotoxicity, MTT assay, REH. Conditions: read-out: Cytotoxicity. As to the method:
as §1, §2

Assay [4] deals with Klebsiella pneumoniae KP4631. The experiment in a line: MIC assay, Klebsiella pneumoniae KP4631. As to the method: (§3) The antimicrobial activity of a selection of compounds were evaluated in a Gram-negative, Gram-positive and multi-resistant bacteria using the standard minimum inhibitory concentration (MIC) assay for an overnight (16-20 hour) incubation period. Commercially marketed antibiotics (Table 3) were used as positive controls during the study.
(§4) Mueller-Hinton broth (MH Broth) (Sigma-Aldrich; Millipore, cat. no. 70192) and Mueller-Hinton agar (MHA) (Sigma-Aldrich; Millipore, cat. no. 70191) were prepared as per manufacturer's instructions and sterilized by autoclaving. Approximately 20 mL of MHA was poured onto 15×100 mm petri dishes and allowed to set. Agar plates were then stored in plastic bags in an inverted position at 4° C.
(§5) Bacterial strains were provided in the form of a glycerol stock, stored at −80° C. For the purpose of preparation of bacterial suspension, appropriate strains were removed from −80° C. storage onto dry ice and not allowed to freeze-thaw.
(§6) Stock solutions of 16, 45 and 73 were provided in DMSO at 1.28 mg/mL concentration. From this stock solution, working solutions of the desired concentration were prepared by diluting with MHB.
(§7) MIC assay methodology was adapted from previously published work.
(§8) Bacterial isolate to be tested was streaked onto a nutrient-rich MH agar plate and incubated overnight at 37° C. in order to obtain single colonies.
(§9) After overnight incubation, single colonies with the same morphological appearance were chosen from the agar plate. These were touched using a sterile loop and transferred into a tube containing 10 mL of a MH broth. They were then mixed using vortex mixer and incubated at 35-37° C. in a shaker at 200 r.p.m. overnight.
(§10) Determination of OD600 and cfu/mL count OD600 (the optical density of a sample measured at a wavelength of 600 nm) of the overnight culture was measured. Because of the loss of linearity at OD600 values […], it was necessary to dilute the sample until the OD600 value was below 1.0. For all tested bacteria, a dilution of 1:10 was appropriate (100 μL in 900 μL broth).
(§11) The overnight culture was then diluted 1:100 using sterile tubes and MH broth (dilution: 10^−2). Serial dilution was then performed six times until dilution of 10^−8 was reached. 100 μL of dilutions 10^−7 and 10^−8 were plated onto MH agar plates in triplicate using a sterile cell spreader and incubated overnight at 37° C.
(§12) After overnight incubation, colonies on plates were counted and cfu per mL calculated. The following formula was applied: […]
(§13) After overnight incubation, the OD600 was measured and the overnight culture was diluted accordingly to obtain 1×10^8 cfu/mL. […]
(§14) The 96-well plates were read using a SpectraMax plate reader at an absorbance of 600 nm. […]

Assay [5] deals with E. coli K12. In words: MIC assay, E. coli K12. Conditions: Escherichia coli, K12, E. coli K12 (Gram-negative), overnight (16-20 hour) incubation. As to the method:
as §3, §4, §5, §6, §7, §8, §9, §10, §11, §12
For the generation of overnight cultures to be used for preparation of the bacterial suspension for MIC tests, a single colony of bacteria was selected using a sterile loop and a sterile tube with MH broth was inoculated followed by overnight incubation at […] in a shaker set to 200 r.p.m.
After overnight incubation, the OD600 was measured and the overnight culture was diluted accordingly to obtain 1×10^8 cfu/mL.
Free payload dilutions were prepared as per Table 4.
96-well sterile microtiter plates were used for MIC assay. The plate was filled with the respective free payload or positive control antibiotic concentrations in triplicate. 100 μL of broth was pipetted in the sterility control well (SC, column 12) and 50 μL in the growth control well (GC, column 11).
1×10^8 cfu/mL bacterial suspension was diluted 1:100 and 50 μL added to each well apart from SC. […]
as §14

In assay [6] the test system is EMRSA 16. In words: MIC assay, EMRSA 16. The settings on record: Staphylococcus aureus. How it is done: as §3, §4, §5, §6, §7, §8, §9, §10, §11, §12, §13, §14
The mark [7] stands for this setting: U138-MG (Glioblastoma), MTT, 72 hour incubation.
The mark [8] stands for this setting: A-431, A431 (Skin), MTT, 72 hour incubation.
[9] abbreviates: REH (ALL), MTT, 72 hour incubation.

As for `COC(=O)c1nc2cc(NC(=O)c3nc(NC(=O)CCCOc4cc5c(cc4OC)C(=O)N4CCCC[C@H]4CN5)cn3C)ccc2o1` [Compound 61, Methyl (S)-5-(4-(4-((2-methoxy-12-oxo-5,6,6a,7,8,9,10,12-octahydrobenzo[e]pyrido[1,2-a][1,4]diazepin-3-yl)oxy)butanamido)-1-methyl-1H-imidazole-2-carboxamido)benzo[d]oxazole-2-carboxylate], the IC50 in assay [1] (setting [7]), in assay [2] (setting [8]) and in assay [3] (setting [9]) was greater than 1000 nM each time.

Gentamicin [reference compound]: in assay [4] (Klebsiella pneumoniae KP4631 (multi-resistant), overnight (16-20 hour) incubation), the MIC is 1 to 2 µg/mL.

On to `COC(=O)c1cc(-c2ccc(NC(=O)c3cc(NC(=O)CCCOc4cc5c(cc4OC)C(=O)N4CCCC[C@H]4CN5)cn3C)cc2)cn1C` [Compound 45, Methyl (S)-4-(4-(4-(4-((2-methoxy-12-oxo-5,6,6a,7,8,9,10,12-octahydrobenzo[e]pyrido[1,2-a][1,4]diazepin-3-yl)oxy)butanamido)-1-methyl-1H-pyrrole-2-carboxamido)phenyl)-1-methyl-1H-pyrrole-2-carboxylate], for which the MIC in assay [5] was greater than 128 µg/mL; in assay [6], 0.5 µg/mL (≈ 0.732 µM); in assay [4] (Klebsiella pneumoniae, KP4631), greater than 128 µg/mL.

`COc1cc2c(cc1OCCCC(=O)Nc1cc(C(=O)Nc3ccc(-c4cc(C(=O)Nc5ccc(N)cc5)n(C)c4)cc3)n(C)c1)NC[C@@H]1Cc3ccccc3N1C2=O` [Compound 106, (S)—N-(4-Aminophenyl)-4-(4-(4-(4-((8-methoxy-6-oxo-11,12,12a,13-tetrahydro-6H-benzo[5,6][1,4]diazepino[1,2-a]indol-9-yl)oxy)butanamido)-1-methyl-1H-pyrrole-2-carboxamido)phenyl)-1-methyl-1H-pyrrole-2-carboxamide]: the IC50 was found to be 84 nM in assay [1] (setting [7]), 26.7 nM in assay [2] (setting [8]) and 24 nM in assay [3] (setting [9]).

With `CN[C@H](CC(C)C)C(=O)N[C@H]1C(=O)N[C@@H](CC(N)=O)C(=O)N[C@H]2C(=O)N[C@H]3C(=O)N[C@H](C(=O)N[C@H](C(=O)O)c4cc(O)cc(O)c4-c4cc3ccc4O)[C@H](O)c3ccc(c(Cl)c3)Oc3cc2cc(c3O[C@@H]2O[C@H](CO)[C@@H](O)[C@H](O)[C@H]2O[C@H]2C[C@](C)(N)[C@H](O)[C@H](C)O2)Oc2ccc(cc2Cl)[C@H]1O` [Vancomycin, reference compound], in assay [6] (EMRSA 16 (Gram-positive), overnight (16-20 hour) incubation, read-out: MIC), the MIC is 1 µg/mL (≈ 0.69 µM).

Consider `COc1cc2c(cc1OCCCC(=O)Nc1cc(C(=O)Nc3ccc(-c4cc(C(=O)Nc5ccc(NC(C)=O)cc5)n(C)c4)cc3)n(C)c1)NC[C@@H]1CCCCN1C2=O` [Compound 70, (S)—N-(4-Acetamidophenyl)-4-(4-(4-(4-((2-methoxy-12-oxo-5,6,6a,7,8,9,10, 12-octahydrobenzo[e]pyrido[1,2-a][1,4]diazepin-3-yl)oxy)butanamido)-1-methyl-1H-pyrrole-2-carboxamido)phenyl)-1-methyl-1H-pyrrole-2-carboxamide], for which the IC50 amounted to 93.6 nM in assay [1] (setting [7]), 11.3 nM in assay [2] (setting [8]) and 42.5 nM in assay [3] (setting [9]).

On to `NC[C@H]1O[C@H](O[C@H]2[C@H](O)[C@@H](O[C@H]3O[C@H](CO)[C@@H](O)[C@H](N)[C@H]3O)[C@H](N)C[C@@H]2N)[C@H](O)[C@@H](O)[C@@H]1O` [Kanamycin, reference compound], for which the MIC in assay [5] (read-out: MIC) lay in the range of 2 to 4 µg/mL (≈ 4.13 to 8.26 µM).

For the compound `COc1cc2c(cc1OCCCC(=O)Nc1cc(C(=O)Nc3ccc(-c4cc(C(=O)Nc5ccc(N)cc5)n(C)c4)cc3)n(C)c1)NC[C@@H]1Cc3ccccc3CN1C2=O` [Compound 119, (S)—N-(4-Aminophenyl)-4-(4-(4-(4-((2-methoxy-14-oxo-5,6,6a,7,12,14-hexahydrobenzo[5,6][1,4]diazepino[1,2-b]isoquinolin-3-yl)oxy)butanamido)-1-methyl-1H-pyrrole-2-carboxamido)phenyl)-1-methyl-1H-pyrrole-2-carboxamide], the IC50 in assay [1] (setting [7]) was 266 nM; in assay [2] (setting [8]), 43.1 nM; in assay [3] (setting [9]) it was 173 nM.

Consider `COc1cc2c(cc1OCCCC(=O)Nc1cc(C(=O)Nc3ccc(-c4cc(C(=O)Nc5ccccc5)n(C)c4)cc3)n(C)c1)NC[C@@H]1CCCCN1C2=O` [Compound 67, (S)-4-(4-((2-Methoxy-12-oxo-5,6,6a,7,8,9,10,12-octahydrobenzo[e]pyrido-[1,2-a][1,4]diazepin-3-yl)oxy)butanamido)-1-methyl-N-(4-(1-methyl-5-(phenylcarbamoyl)-1H-pyrrol-3-yl)phenyl)-1H-pyrrole-2-carboxamide], for which the IC50 in assay [1] (U138-MG, 72 h) came to 57.2 nM; in assay [2] (A-431, 72 h), 25.9 nM; in assay [3] (72 h) it was 29.4 nM.

Regarding `COC(=O)c1cc(-c2ccc(NC(=O)c3cc(NC(=O)CCCOc4cc5c(cc4OC)C(=O)N4Cc6ccccc6C[C@H]4CN5)cn3C)cc2)cn1C` [Compound 121, Methyl (S)-4-(4-(4-(4-((2-methoxy-14-oxo-5,6,6a,7,12,14-hexahydrobenzo-[5,6][1,4]diazepino[1,2-b]isoquinolin-3-yl)oxy)butanamido)-1-methyl-1H-pyrrole-2-carboxamido)phenyl)-1-methyl-1H-pyrrole-2-carboxylate], the IC50 in assay [1] (setting [7]) was found to be 43.8 nM; in assay [2] (setting [8]) it was 13.4 nM; in assay [3] (setting [9]), 11.6 nM.

Source of the values: patent US20210371413A1, “POLYCYCLIC AMIDES AS CYTOTOXIC AGENTS” (FEMTOGENIX LIMITED, priority 2018, published 2021).
